Data set [1] can be described thus: Solubility of ACF in different media. The following applies: thermodynamic from solid. Type of data set: physicochemical. The protocol:
The mixture was shaken using a vortex mixer (Heidolph Instrument, D-91126 Schwabach, type RZR 2021, Bavaria, Germany) for 15 min, followed by storage at room temperature. After 24 h, the resulting solution was subjected to centrifugation at 3000 rpm for 5 min to separate the clear supernatant. A suitable sample solution was collected and diluted with absolute methanol. The diluted sample was filtered using Whatman 102 filter paper and further diluted with absolute methanol for the determination of the drug concentration in the saturated solution. Analysis of the samples was performed using a UV spectrophotometer (DU 640; Beckman, CA, USA) at a wavelength of 276 nm, with methanol as the blank reference.

In data set [2] the test system is A375 human melanoma cell lines. Briefly: Cytotoxicity SRB assay. The conditions noted are these: A-375, 48 h of incubation (method says 72 h). Type of data set: cell-based.
Protocol: Cell viability was assessed by SRB assay as reported [47]. […] Melanoma cells were mixed with TCA (10%) and maintained at 4 °C for 1 h, then washed with D.W. Sulforhodamine B (70 μL) (0.4% w/v) was added and kept for 10 min. Plates were washed by 1% acetic acid 3 times and left to dry overnight. TRIS (150 μL) was added to dissolve the protein-bound SRB stain. Lastly, absorbance was determined by a star Omega microplate reader (BMGLABTECH®-FLUO, Ortenberg, Germany) at 540 nm [48, 49]. Cytotoxicity was expressed as (IC50), which was determined by plotting %viability against the concentration of the drug (five concentrations were used). IC50 values were calculated from the dose–response curve by the PRISM program.

SMILES strings stand for the structures. Converted amounts (≈) assume the structure as drawn.

As usually defined, the solubility is how much of the substance goes into solution per volume. One may read the IC50 as the concentration needed to halve the response being measured. High values mean lower potency, low ones higher potency. For the compound `O=C(O)COC(=O)Cc1ccccc1Nc1c(Cl)cccc1Cl` [ACF, Aceclofenac], the solubility at 24 h in data set [1] (oil or lipid, citronellol oil, room temperature) came to 5.26 mg/mL (≈ 14.9 mM); in data set [1] (organic solvent or mixture, Transcutol HP, room temperature), 300 mg/mL (≈ 848 mM); in data set [1] (Tween 80, room temperature) it was 62.6 mg/mL (≈ 177 mM); in data set [1] (water, room temperature), 0.071 mg/mL (≈ 0.2 mM). In addition, it took 69.3 µg/mL (≈ 0.196 mM) to reach half-maximal inhibition in data set [2] (IC50).
